What all share (assay): relative viability (nuclei count vs DMSO), 5 days (fraction); higher = more cells survive
Compound in experiment [1]: C1CSC2=C(C(=O)N1)SC3=C2C=C(C=C3)O [kb NB 142-70] + CC(=O)c1c(C)c2cnc(Nc3ccc(N4CCNCC4)cn3)nc2n(C2CCCC2)c1=O [Palbociclib] (partner 0.5 µM)
In a few lines: (§1)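 Five library-drug doses in √10 steps were combined with a fixed anchor-drug dose, or a single drug was given alone, by pin tool to lung cancer cell lines in 1536-well plates the day after seeding. Nuclei were stained and counted after 5 days. Relative viability is the nuclei count in treated wells over that in vehicle wells, taken as the median of duplicate plates.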

Compound in experiment [2]: NCC(=O)Nc1ccc(-n2nc(C(F)(F)F)cc2-c2ccc3c(ccc4ccccc43)c2)cc1 + CC(C)C[C@H](NC(=O)[C@H](Cc1ccccc1)NC(=O)c1cnccn1)B(O)O [Bortezomib] (partner 0.002 µM)
In a few lines:
as §1

Compound in experiment [3]: NCC(=O)Nc1ccc(-n2nc(C(F)(F)F)cc2-c2ccc3c(ccc4ccccc43)c2)cc1 + NC(=O)Nc1cc(-c2cccc(F)c2)sc1C(=O)N[C@H]1CCCNC1 [AZD7762] (partner 0.2 µM)
In outline:
as §1

Compound in experiment [4]: C1CSC2=C(C(=O)N1)SC3=C2C=C(C=C3)O [kb NB 142-70] + CC(C)C[C@H](NC(=O)[C@H](Cc1ccccc1)NC(=O)c1cnccn1)B(O)O [Bortezomib] (partner 0.002 µM)
In outline: as §1

Compound in experiment [5]: C1CSC2=C(C(=O)N1)SC3=C2C=C(C=C3)O [kb NB 142-70] + C[C@@H](Oc1cc(-c2cnn(C3CCNCC3)c2)cnc1N)c1c(Cl)ccc(F)c1Cl [Crizotinib] (partner 1 µM)
In outline: as §1

Our source for the relative viability values is the supplement of paper PMC10307832.

As to EKVX, the relative viability in experiment [1] (first compound 0.1 µM) was found to be 0.361; in experiment [1] (first compound 1 µM), 0.393; in experiment [1] (first compound 3.162 µM), 0.37; in experiment [2] (first compound 0.02 µM), 1.05; in experiment [2] (first compound 0.06325 µM), 1.09; in experiment [2] (first compound 0.2 µM), 1.16. Moreover, the relative viability worked out at 1.02 in experiment [2] (first compound 0.6325 µM); 0.984 in experiment [2] (first compound 2 µM); 0.748 in experiment [3] (first compound 0.02 µM); 0.823 in experiment [3] (first compound 0.06325 µM); 0.651 in experiment [3] (first compound 0.2 µM); 0.607 in experiment [3] (first compound 0.6325 µM). Besides, the relative viability is 0.738 in experiment [3] (first compound 2 µM); 0.994 in experiment [4] (first compound 0.1 µM); 1.05 in experiment [4] (first compound 1 µM); 0.993 in experiment [4] (first compound 3.162 µM); 0.884 in experiment [5] (first compound 0.1 µM); 1.04 in experiment [5] (first compound 1 µM). Besides, the relative viability in experiment [5] (first compound 3.162 µM) worked out at 1.19.
In the case of LXF-289, the relative viability in experiment [1] (first compound 0.1 µM) turned out to be 0.578; in experiment [1] (first compound 1 µM), 0.613; in experiment [1] (first compound 3.162 µM) it was 0.567; in experiment [2] (first compound 0.02 µM), 1.05; in experiment [2] (first compound 0.06325 µM) it was 1.1; in experiment [2] (first compound 0.2 µM), 0.966. Also, the relative viability in experiment [2] (first compound 0.6325 µM) is 1.02; in experiment [2] (first compound 2 µM) it was 1.01; in experiment [3] (first compound 0.02 µM), 1.14; in experiment [3] (first compound 0.06325 µM), 1.13; in experiment [3] (first compound 0.2 µM), 1.01; in experiment [3] (first compound 0.6325 µM), 1.12. The relative viability in experiment [3] (first compound 2 µM) is 1.06; in experiment [4] (first compound 0.1 µM), 1.02; in experiment [4] (first compound 1 µM) it was 0.942; in experiment [4] (first compound 3.162 µM) it was 0.895; in experiment [5] (first compound 0.1 µM) it was 0.776; in experiment [5] (first compound 1 µM), 0.796. For the same cell line, in experiment [5] (first compound 3.162 µM), the relative viability was determined as 0.744.
As for ABC-1, the relative viability in experiment [1] (first compound 0.1 µM) was determined as 0.425; in experiment [1] (first compound 1 µM), 0.83; in experiment [1] (first compound 3.162 µM) it was 0.534; in experiment [2] (first compound 0.02 µM), 0.306; in experiment [2] (first compound 0.06325 µM) it was 0.321; in experiment [2] (first compound 0.6325 µM), 0.226. For the same cell line, the relative viability came out at 0.267 in experiment [2] (first compound 2 µM); 0.811 in experiment [3] (first compound 0.02 µM); 0.899 in experiment [3] (first compound 0.06325 µM); 0.758 in experiment [3] (first compound 0.6325 µM); 0.866 in experiment [3] (first compound 2 µM); 0.373 in experiment [4] (first compound 0.1 µM). In addition, the relative viability was found to be 0.278 in experiment [4] (first compound 1 µM); 0.239 in experiment [4] (first compound 3.162 µM); 1.02 in experiment [5] (first compound 0.1 µM); 1.31 in experiment [5] (first compound 1 µM); 0.497 in experiment [5] (first compound 3.162 µM).
As for NCI-H650, the relative viability was 0.362 in experiment [1] (first compound 0.1 µM); 0.422 in experiment [1] (first compound 1 µM); 0.394 in experiment [1] (first compound 3.162 µM); 0.663 in experiment [2] (first compound 0.02 µM); 1.02 in experiment [2] (first compound 0.06325 µM); 0.931 in experiment [2] (first compound 0.2 µM). Besides, the relative viability in experiment [2] (first compound 0.6325 µM) was determined as 0.677; in experiment [2] (first compound 2 µM), 0.907; in experiment [3] (first compound 0.02 µM), 0.988; in experiment [3] (first compound 0.06325 µM), 1.12; in experiment [3] (first compound 0.2 µM), 1.08; in experiment [3] (first compound 0.6325 µM), 1.02. Moreover, the relative viability in experiment [3] (first compound 2 µM) stood at 1.05; in experiment [4] (first compound 0.1 µM) it was 0.845; in experiment [4] (first compound 1 µM), 0.719; in experiment [4] (first compound 3.162 µM) it was 0.561; in experiment [5] (first compound 0.1 µM), 0.715; in experiment [5] (first compound 1 µM) it was 0.683. Besides, in experiment [5] (first compound 3.162 µM), the relative viability was 0.449.
Consider NCI-H2085, for which the relative viability in experiment [1] (first compound 0.1 µM) turned out to be 0.466; in experiment [1] (first compound 1 µM), 0.452; in experiment [1] (first compound 3.162 µM), 0.367; in experiment [2] (first compound 0.02 µM) it was 1.09; in experiment [2] (first compound 0.06325 µM), 1.05; in experiment [2] (first compound 0.2 µM), 1.03. Moreover, the relative viability came out at 1 in experiment [2] (first compound 0.6325 µM); 1.07 in experiment [2] (first compound 2 µM); 0.943 in experiment [3] (first compound 0.02 µM); 1.03 in experiment [3] (first compound 0.06325 µM); 1.04 in experiment [3] (first compound 0.2 µM); 1.06 in experiment [3] (first compound 0.6325 µM). Moreover, the relative viability was determined as 1.04 in experiment [3] (first compound 2 µM); 1 in experiment [4] (first compound 0.1 µM); 1 in experiment [4] (first compound 1 µM); 0.709 in experiment [4] (first compound 3.162 µM); 0.754 in experiment [5] (first compound 0.1 µM); 0.814 in experiment [5] (first compound 1 µM). The relative viability in experiment [5] (first compound 3.162 µM) worked out at 0.663.
As for LC-2-ad, the relative viability in experiment [1] (first compound 0.1 µM) is 0.457; in experiment [1] (first compound 1 µM), 0.475; in experiment [1] (first compound 3.162 µM), 0.513; in experiment [2] (first compound 0.02 µM), 1.1; in experiment [2] (first compound 0.06325 µM), 1.03; in experiment [2] (first compound 0.2 µM), 0.997. For the same cell line, the relative viability in experiment [2] (first compound 0.6325 µM) came out at 0.912; in experiment [2] (first compound 2 µM) it was 1.12; in experiment [3] (first compound 0.02 µM), 1.09; in experiment [3] (first compound 0.06325 µM) it was 0.875; in experiment [3] (first compound 0.2 µM) it was 0.772; in experiment [3] (first compound 0.6325 µM), 0.849. The relative viability was found to be 0.886 in experiment [3] (first compound 2 µM); 1.12 in experiment [4] (first compound 0.1 µM); 1.03 in experiment [4] (first compound 1 µM); 0.916 in experiment [4] (first compound 3.162 µM); 0.446 in experiment [5] (first compound 0.1 µM); 0.429 in experiment [5] (first compound 1 µM). Also, the relative viability in experiment [5] (first compound 3.162 µM) is 0.421.
For NCI-H1355, the relative viability in experiment [1] (first compound 0.1 µM) was 0.417; in experiment [1] (first compound 1 µM) it was 0.39; in experiment [1] (first compound 3.162 µM), 0.404; in experiment [2] (first compound 0.02 µM), 1.22; in experiment [2] (first compound 0.06325 µM), 1.28; in experiment [2] (first compound 0.2 µM), 1.15. In addition, the relative viability is 1.19 in experiment [2] (first compound 0.6325 µM); 1.29 in experiment [2] (first compound 2 µM); 0.717 in experiment [3] (first compound 0.02 µM); 0.776 in experiment [3] (first compound 0.06325 µM); 0.797 in experiment [3] (first compound 0.2 µM); 0.776 in experiment [3] (first compound 0.6325 µM). Further, the relative viability in experiment [3] (first compound 2 µM) worked out at 0.806; in experiment [4] (first compound 0.1 µM) it was 1.24; in experiment [4] (first compound 1 µM) it was 1.16; in experiment [4] (first compound 3.162 µM), 1.22; in experiment [5] (first compound 0.1 µM), 1.02; in experiment [5] (first compound 1 µM), 1.03. Besides, the relative viability in experiment [5] (first compound 3.162 µM) amounted to 1.05.
As for H3255, the relative viability in experiment [1] (first compound 0.1 µM) amounted to 0.323; in experiment [1] (first compound 1 µM), 0.314; in experiment [1] (first compound 3.162 µM), 0.316; in experiment [2] (first compound 0.02 µM), 0.87; in experiment [2] (first compound 0.06325 µM), 1.12; in experiment [2] (first compound 0.2 µM), 0.846. The relative viability in experiment [2] (first compound 0.6325 µM) worked out at 0.791; in experiment [2] (first compound 2 µM) it was 0.876; in experiment [3] (first compound 0.02 µM), 0.853; in experiment [3] (first compound 0.06325 µM), 0.914; in experiment [3] (first compound 0.2 µM) it was 0.959; in experiment [3] (first compound 0.6325 µM) it was 0.974. Moreover, the relative viability in experiment [3] (first compound 2 µM) is 0.898; in experiment [4] (first compound 0.1 µM) it was 0.822; in experiment [4] (first compound 1 µM), 0.7; in experiment [4] (first compound 3.162 µM) it was 0.822; in experiment [5] (first compound 0.1 µM), 0.97; in experiment [5] (first compound 1 µM), 0.776. Further, the relative viability in experiment [5] (first compound 3.162 µM) came to 0.958.
